Experimental findings from patent US20150315188A1, “COMPOUNDS AND METHODS FOR TREATMENT OF HYPERTENSION” (MEDIVATION TECHNOLOGIES, INC., priority 2012, published 2015) are described below.

The test system of one series is human hepatocytes. The series is described as follows: Stability in the presence of human hepatocytes. Format: in vitro ADME. The note with it: human hepatocytes, 5 μM, 37° C., average of duplicates; ^a = 0-120 minute time points. The method, then: (§1) Compounds of the invention were tested for stability in the presence of dog, rat and human hepatocytes over a 4 hour period by LC/MS/MS. The study was performed by Integrated Analytical Solutions, Berkeley, Calif.
(§2) Reference Standards and Solutions: Compounds of the invention were stored as powders at ambient temperature in a desiccator and protected from light. Reference stock solutions of Compound Nos. 50a, 50b, 79a, 82, 91a and 178d, as 20 mM in DMSO were prepared and subsequently diluted to 2 mM in MeOH to provide working stock solutions (WSS). Unused standard solutions were stored at −20° C.
(§3) Hepatocyte Preparation: Human (mixed gender), Beagle dog (male) and Sprague Dawley rat (male) cryopreserved hepatocytes were purchased from Life Technologies Corporation. Hepatocytes were removed from liquid nitrogen, quickly thawed in a 37° C. water bath and transferred to Hepatocyte Thawing/Plating Medium (Cryopreserved Hepatocyte Recovery Medium, CHRM, Life Technologies Inc.). The cells were pelleted by slow speed centrifugation (˜100×g, 6 min) and resuspended at a high cell density. Hepatocyte viability was determined by trypan blue exclusion. Hepatocyte incubation medium (Life Technologies, Inc.) was added to generate a cell density of 2.0×10^6 cells/mL.
(§4) Hepatocyte Incubations for Stability: The 2 mM WSS was diluted 1 in 200 in hepatocyte incubation medium (pH 7.4) to 10 μM. A solution containing control compounds was prepared similarly to contain 10 μM each of dextromethorphan and testosterone. The solutions of test compounds and controls at 10 μM in hepatocyte incubation medium were pre-incubated at 37° C. for 10 min. Aliquots (250 μL) of hepatocyte suspensions (at 2.0×10^6 cells/mL) were transferred to appropriate 48-well plates and pre-incubated at 37° C. for 10 minutes. Metabolism was initiated by adding 250 μL pre-incubated medium (containing test drug) to wells containing cells. A negative control reaction excluding hepatocytes was used to monitor aqueous stability and/or non-specific adsorption. The final reaction mixtures contained 5 μM of test or control compound and 1.0×10^6 cells/mL. All reactions were performed in duplicate and carried at 37° C. in an incubator. Dextromethorphan and testosterone were used as control drugs to verify hepatocyte activity.
(§5) Aliquots were removed from each metabolism reaction at 0, 0.5, 2 and 4 hours. The reactions were terminated by adding each aliquot to a vessel containing 2× volumes (80 μL) of Internal Standard Solution (acetonitrile containing 50 ng/mL 2-(2,8-dimethyl-3,4-dihydro-1H-pyrido[4,3-b]indol-5(2H)-yl)-1-(pyridin-4-yl)ethanol (ISS1), 50 ng/mL of 2-(2,8-dimethyl-3,4-dihydro-1H-pyrido[4,3-b]indol-5(2H)-yl)-1-(piperidin-1-yl)ethanone (ISS2) and 5 ng/mL diphenhydramine. Terminated reactions were centrifuged at 6000 g for 30 mins at 4° C. to remove the precipitated proteins and cell debris. Following centrifugation, 20 μL of each supernatant was transferred to a deep-well microplate and diluted with 5× volumes (100 μL) of 0.2% formic acid in water. Compound 178d samples were diluted with 5× volumes (100 μL) of 0.1% HFBA in water. Samples were analyzed by LC/MS/MS.
(§6) Calculation of Metabolism Parameters: Percent remaining was measured by dividing the analyte/IS peak area ratio at the designated sample time by the peak area ratio at time 0. ISS1 served as the IS for Compound No. 178d. ISS2 served as the IS for Compound nos. 50a, 50b, 79a, 82 and 91a. The metabolic half-life (T1/2) was calculated using all time points unless otherwise noted. The T1/2 values were calculated as 0.693/k, where k is the slope of the log analyte/internal standard peak area ratio versus time. Metabolism rate was calculated by dividing the starting concentration of substrate by the concentration of hepatocytes, then dividing by the T1/2 value.

The next series has as its system dog hepatocytes. In words: Stability in the presence of dog hepatocytes. The note with it: dog hepatocytes, 5 μM, 37° C., average of duplicates; ^a = 0-120 minute time points. Format: in vitro ADME, Beagle dog. The method, then: as §1, §2, §3, §4, §5, §6
A further series deals with rat hepatocytes. In words: Stability in the presence of rat hepatocytes. The note with it: rat hepatocytes, 5 μM, 37° C., average of duplicates; ^a = 0-120 minute time points. Type of series: in vitro ADME, Sprague Dawley rat. Here is the method: as §1, §2, §3, §4, §5, §6

Marks after values point to notes of the source that are not given here.

`Cc1cc2c3c(n(CC(C)(O)c4ccncc4)c2cc1Cl)CCN1CCCC31` (single isomer, unassigned) [50b]: the “T1/2 Human” value with human hepatocytes is listed as 82^a min. For the same molecule, the “T1/2 Dog” value with dog hepatocytes is reported as 100^a min. Moreover, the “T1/2 Rat” value with rat hepatocytes was more than 4 h.
